The text below walks through data of US9969723B2, “3-(4-(benzyloxy)phenyl)hex-4-ynoic acid derivative, method of preparing same and pharmaceutical composition for preventing and treating metabolic disease including same as effective ingredient” (HYUNDAI PHARM CO., LTD, priority 2014, dated 2018).

Sequence of GPR40 (O14842 whole entry): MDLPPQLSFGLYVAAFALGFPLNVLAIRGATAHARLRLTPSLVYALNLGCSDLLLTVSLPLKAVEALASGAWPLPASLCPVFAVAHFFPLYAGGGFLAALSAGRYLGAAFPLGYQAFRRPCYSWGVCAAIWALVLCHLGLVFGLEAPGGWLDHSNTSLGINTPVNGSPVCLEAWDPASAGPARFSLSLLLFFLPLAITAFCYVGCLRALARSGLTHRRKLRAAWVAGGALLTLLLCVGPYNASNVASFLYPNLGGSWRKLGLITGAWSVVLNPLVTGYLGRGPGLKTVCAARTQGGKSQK

The target of one assay is GPR40 (Homo sapiens (Human), UniProt O14842). Put plainly: GPR40 protein activity by intracellular calcium concentration (Fluo-4, Flexstation 3) in transfected HEK-293 cells. The conditions noted are these: HEK-293 cells transfected with human GPR40, intracellular calcium; read-out: EC50. The class given is cell-based. How it is done:
The GPR40 protein activity according to the novel 3-(4-(benzyloxy)phenyl)hex-4-inoic acid derivative of the present invention was measured by investigating the changes in intracellular calcium concentration affected by the GRP40 activation. First, HEK-293 cells were transfected with human GPR40 DNA (Origene, RC218370) by using Fugene HD (Promega, E2311). […] 24 hours later, the cell culture medium was replaced with Dulbecco's Modified Eagle Medium (DMEM, 50 μl/well) supplemented with 1% fetal bovine serum (FBS). To measure the calcium concentration, 50 μl of Fluo-4 reagent (Invitrogen, F10471) was added to each well, followed by culture in a 37° C. incubator for 2 hours. […] 2 hours after the culture began, those prepared samples were automatically injected to the cells by using Flexstation 3 (Molecular Devices). Then, intracellular calcium concentration was measured for 120 seconds by using SoftMax® Pro software. At this time, dimethylsulfoxide (DMSO) was injected to the cells for the non-treated group, followed by measuring the calcium concentration therein. The GPR40 protein activity was calculated by the below mathematical formula 1 with the results of calcium concentration measurement. GPR40 activity=(intracellular calcium concentration increased by the sample)/(intracellular calcium concentration of the non-treated group)×100 [Mathematical Formula 1]
Turning to `CC#CC(CC(=O)O)c1ccc(OCc2cccc(C3=CCC(O)CC3)c2)cc1` [Example 6, L-lysine 3-(4-(3-(4-hydroxycyclohex-1-enyl)benzyloxy)phenyl)hex-4-ynoate], the EC50 is 200 to 300 nM. Take `CC#C[C@H](CC(=O)O)c1ccc(OCc2cccc(C3=CCC4(CC3)OCCO4)c2)cc1` [Example 8, (3R)-3-(4-(3-(1,4-dioxaspiro[4,5]dec-7-en-8-yl)benzyloxy)phenyl)hex-4-ynoic acid]: the EC50 is over 300 nM. On to `CC#CC(CC(=O)O)c1ccc(OCc2ccc(CN3CCc4ccccc4C3)cc2)cc1` (centres unmarked) [Example 12, 3-(4-(4-((3,4-dihydroisoquinoline-2(1H)-yl)methyl)benzyloxy)phenyl)hex-4-ynoic acid], for which the EC50 was under 200 nM. As for `CC#CC(CC(=O)O)c1ccc(OCc2ccc(CN3CCc4ccccc4C3)c(C3=CCCCC3)c2)cc1` (centres unmarked) [Example 13, 3-(4-(3-cyclohexenyl-4-((3,4-dihydroisoquinoline-2(1H)-yl)methyl)benzyloxy)phenyl)hex-4-ynoic acid], the EC50 was over 300 nM.

As to `CC#CC(CC(=O)O)c1ccc(OCc2ccc(CN3CCN(c4ccccc4)CC3)cc2)cc1` (centres unmarked) [Example 15, 3-(4-(4-((4-phenylpiperazine-1-yl)methyl)benzyloxy)phenyl)hex-4-ynoic acid], the EC50 is over 300 nM. Consider `CC#CC(CC(=O)O)c1ccc(OCc2ccc(CN3CCc4cc(OC)ccc4C3)cc2)cc1` (centres unmarked) [Example 16, 3-(4-(4-((6-methoxy-3,4-dihydroisoquinoline-2(1H)-yl)methyl)benzyloxy)phenyl)hex-4-ynoic acid], for which the EC50 was over 300 nM. With `CC#CC(CC(=O)O)c1ccc(OCc2ccc(CN3CCC(c4ccccc4)CC3)cc2)cc1` (centres unmarked) [Example 17, 3-(4-(4-((4-phenylpiperidine-1-yl)methyl)benzyloxy)phenyl)hex-4-ynoic acid], the EC50 is over 300 nM. On the same count and under the same terms, for `CC#CC(CC(=O)O)c1ccc(OCc2ccc(CN3CCN(c4ccc(F)cc4)CC3)cc2)cc1` (centres unmarked) [Example 18, 3-(4-(4-((4-(4-fluorophenyl)piperazine-1-yl)methyl)benzyloxy)phenyl)hex-4-ynoic acid] the value was over 300 nM; for `CC#CC(CC(=O)O)c1ccc(OCc2ccc(CN3CCN(c4ccc(C(F)(F)F)cc4)CC3)cc2)cc1` (centres unmarked) [Example 19, 3-(4-(4-((4-(4-(trifluoromethyl)phenyl)piperazine-1-yl)methyl)benzyloxy)phenyl)hex-4-ynoic acid], over 300 nM; for `CC#CC(CC(=O)O)c1ccc(OCc2ccc(CN3CCN(c4ccc(OCCCS(C)(=O)=O)cc4)CC3)cc2)cc1` (centres unmarked) [Example 20, 3-(4-(4-((4-(4-(3-(methylsulfonyl)propoxy)phenyl)piperazine-1-yl)methyl)benzyloxy)phenyl)hex-4-ynoic acid], over 300 nM. On to `CC#C[C@@H](CC(=O)O)c1ccc(OCc2ccc(CN3CCN(c4ccc(C(F)(F)F)cc4)CC3)cc2)cc1` [Example 22, (S)-3-(4-(4-((4-(4-(trifluoromethyl)phenyl)piperazine-1-yl)methyl)benzyloxy)phenyl)hex-4-ynoic acid], for which the EC50 was over 300 nM. For the compound `CC#C[C@@H](CC(=O)O)c1ccc(OCc2ccc(CN3CCN(c4ccc(F)cc4)CC3)cc2)cc1` [Example 23, (S)-3-(4-(4-((4-(4-fluorophenyl)piperazine-1-yl)methyl)benzyloxy)phenyl)hex-4-ynoic acid], the EC50 lay in the range of 200 to 300 nM. For `CC#C[C@@H](CC(=O)O)c1ccc(OCc2ccc(CN3CCc4cc(OC)ccc4C3)cc2)cc1` [Example 25, (S)-3-(4-(4-((6-methoxy-3,4-dihydroisoquinoline-2(1H)-yl)methyl)benzyloxy)phenyl)hex-4-ynoic acid], the EC50 is over 300 nM. As for `CC#C[C@@H](CC(=O)O)c1ccc(OCc2ccc(CN3Cc4ccccc4C3)cc2)cc1` [Example 27, (S)-3-(4-(4-(isoindoline-2-ylmethyl)benzyloxy)phenyl)hex-4-ynoic acid], the EC50 was under 200 nM.

Take `CC#C[C@@H](CC(=O)O)c1ccc(OCc2ccc(CN3CC=C(c4ccc(S(C)(=O)=O)cc4)CC3)cc2)cc1` [Example 32, (S)-3-(4-(4-((4-(4-(methylsulfonyl)phenyl)-5,6-dihydropyridine-1(2H)-yl)methyl)benzyloxy)phenyl)hex-4-ynoic acid]: the EC50 was over 300 nM.

For `CC#C[C@@H](CC(=O)O)c1ccc(OCc2ccc(CN3CC=C(c4ccc(OCCCS(C)(=O)=O)cc4)CC3)cc2)cc1` [Example 33, (S)-3-(4-(4-((4-(4-(3-(methylsulfonyl)propoxy)phenyl)-5,6-dihydropyridine-1(2H)-yl)methyl)benzyloxy)phenyl)hex-4-ynoic acid], the EC50 is over 300 nM.

For `CC#C[C@@H](CC(=O)O)c1ccc(OCc2ccc(C(C)N3CCc4ccccc4C3)cc2)cc1` (stereo partly drawn) [Example 34, (3S)-3-(4-(4-(1-(3,4-dihydroisoquinoline-2(1H)-yl)ethyl)benzyloxy)phenyl)hex-4-ynoic acid], the EC50 is over 300 nM. On to `CC#C[C@@H](CC(=O)O)c1ccc(OCc2ccc(CN3CCN(c4ccc(O)cc4)CC3)cc2)cc1` [Example 35, (S)-3-(4-(4-((4-(4-hydroxyphenyl)piperazine-1-yl)methyl)benzyloxy)phenyl)hex-4-ynoic acid], for which the EC50 is over 300 nM. For `CC#C[C@@H](CC(=O)O)c1ccc(OCc2ccc(CN3CC=C(c4ccc(F)cc4)CC3)cc2)cc1` [Example 39, (S)-3-(4-(4-((4-(4-fluorophenyl)-5,6-dihydropyridine-1(2H)-yl)methyl)benzyloxy)phenyl)hex-4-ynoic acid], the EC50 was in the range of 200 to 300 nM. For the compound `CC#C[C@@H](CC(=O)O)c1ccc(OCc2ccc(CN3CCCc4ccccc43)cc2)cc1` [Example 41, sodium (S)-3-(4-(4-((3,4-dihydroquinoline-1(2H)-yl)methyl)benzyloxy)phenyl)hex-4-ynoate], the EC50 is over 300 nM.

`CC#C[C@@H](CC(=O)O)c1ccc(OCc2ccc(CN3CCN(c4nc5ccccc5s4)CC3)cc2)cc1` [Example 43, (S)-3-(4-(4-((4-(benzo[d]thiazole-2-yl)piperazine-1-yl)methyl)benzyloxy)phenyl)hex-4-ynoic acid]: the EC50 is over 300 nM. As to `CC#C[C@@H](CC(=O)O)c1ccc(OCc2ccc(CN3CCN(c4ncc(CCC)cn4)CC3)cc2)cc1` [Example 44, (S)-3-(4-(4-((4-(5-propylpyrimidine-2-yl)piperazine-1-yl)methyl)benzyloxy)phenyl)hex-4-ynoic acid], the EC50 is over 300 nM. Turning to `CC#C[C@@H](CC(=O)O)c1ccc(OCc2ccc(CN3CCN(c4ccc(C#N)cn4)CC3)cc2)cc1` [Example 45, (S)-3-(4-(4-((4-(5-cyanopyridine-2-yl)piperazine-1-yl)methyl)benzyloxy)phenyl)hex-4-ynoic acid], the EC50 is over 300 nM. For `CC#C[C@@H](CC(=O)O)c1ccc(OCc2ccc(CN3CCC(c4ccccc4)C3)cc2)cc1` (stereo partly drawn) [Example 46, (3S)-3-(4-(4-((3-phenylpyrrolidine-1-yl)methyl)benzyloxy)phenyl)hex-4-ynoic acid], the EC50 was over 300 nM.

Take `CC#C[C@@H](CC(=O)O)c1ccc(OCc2ccc(CCN3CCc4cc(OC)ccc4C3)cc2)cc1` [Example 48, (S)-3-(4-(4-(2-(6-methoxy-3,4-dihydroisoquinoline-2(1H)-yl)ethyl)benzyloxy)phenyl)hex-4-ynoic acid]: the EC50 is over 300 nM. For `CC#C[C@@H](CC(=O)O)c1ccc(OCc2ccc(CCN3Cc4ccccc4C3)cc2)cc1` [Example 49, (S)-3-(4-(4-(2-(isoindoline-2-yl)ethyl)benzyloxy)phenyl)hex-4-ynoic acid], the EC50 is over 300 nM. Still for that read-out and setting: for `CC#C[C@@H](CC(=O)O)c1ccc(OCc2ccc(CCN3CCc4ccccc4C3)cc2)cc1` [Example 50, (S)-3-(4-(4-(2-(3,4-dihydroisoquinoline-2(1H)-yl)ethyl)benzyloxy)phenyl)hex-4-ynoic acid] the value was over 300 nM.

The same assay, now with this note: HEK-293 cells transfected with human GPR40, intracellular calcium; values in text; read-out: EC50, concentration promoting activation of GPR40 protein by 50%.
For `CC#CC(CC(=O)O)c1ccc(OCc2ccc(CN3CCc4ccccc4C3)cc2)cc1` (centres unmarked) [Example 12, 3-(4-(4-((3,4-dihydroisoquinoline-2(1H)-yl)methyl)benzyloxy)phenyl)hex-4-ynoic acid], the EC50 is under 200 nM. As for `CC#C[C@@H](CC(=O)O)c1ccc(OCc2ccc(CN3Cc4ccccc4C3)cc2)cc1` [Example 27, (S)-3-(4-(4-(isoindoline-2-ylmethyl)benzyloxy)phenyl)hex-4-ynoic acid], the EC50 was under 200 nM.
